This assay concerns the target T1, MBP-PAI (Cutibacterium acnes, UniProt Q6A8X5).
T1 construct: gene PPA1039; PAI (about 50 kDa); synthesized gene in pET-24a(+), E. coli BL21(DE3)
T1 sequence (Q6A8X5 1-424): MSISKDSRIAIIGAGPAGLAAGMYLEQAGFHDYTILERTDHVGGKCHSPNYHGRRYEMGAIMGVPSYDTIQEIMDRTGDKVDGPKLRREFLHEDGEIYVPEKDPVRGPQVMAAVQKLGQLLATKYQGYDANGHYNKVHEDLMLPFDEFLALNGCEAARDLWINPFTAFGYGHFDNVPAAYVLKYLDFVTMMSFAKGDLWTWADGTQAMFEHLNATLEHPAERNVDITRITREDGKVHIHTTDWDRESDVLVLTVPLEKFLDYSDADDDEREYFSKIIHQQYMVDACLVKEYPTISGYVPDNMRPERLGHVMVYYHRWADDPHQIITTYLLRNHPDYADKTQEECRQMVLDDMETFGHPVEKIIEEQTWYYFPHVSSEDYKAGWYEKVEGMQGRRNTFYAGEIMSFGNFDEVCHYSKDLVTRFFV
Kind of assay: spectrophotometry at […] nm, CLA formation, Lineweaver-Burk. Format: biochemical. As to conditions: optimal conditions (37 °C, pH 7.5, 1 mmol/L Tween-20); LA 71-1428 μM; MBP tag not cleaved; apparent.

The Km is the substrate concentration at which the rate is half of its maximum.

For `CCCCC/C=C\C/C=C\CCCCCCCC(=O)O` [linoleic acid], the Km stood at 254 µM.

For the origin of these results see paper PMC9141242, “Enhanced Soluble Expression of Linoleic Acid Isomerase by Coordinated Regulation of Promoter and Fusion Tag in Escherichia coli” (Foods, 2022).
